In one test the target is T1, human JAK1 (Homo sapiens, UniProt P23458).
T1 construct: catalytic domain, amino acids 866-1154; catalog number PV4774; purchased Invitrogen PV4774
Kind of test: JAK1 inhibition assay (polyGT substrate / Ulight-JAK1 peptide). In kind it is biochemical. Conditions: recombinant human JAK1 catalytic domain; polyGT or Ulight-JAK1 peptide assay. The procedure:
1.1 JAK1 Inhibition Assay
1.1.1 JAK1 Assay polyGT Substrate
After 45 min at 30° C., reactions are stopped by adding of 25 μL/well of 150 mM phosphoric acid. […] Plates are washed 6 times with 300 μL per well of a 75 mM phosphoric acid solution and the bottom of the plates is sealed. 40 μL/well of Microscint-20 is added, the top of the plates is sealed and readout is performed using the Topcount (Perkin Elmer). Kinase activity is calculated by subtracting counts per min (cpm) obtained in the presence of a positive control inhibitor (10 μM staurosporine) from cpm obtained in the presence of vehicle. The ability of a test compound to inhibit this activity is determined as:
(§1) Percentage inhibition=((cpm determined for sample with test compound present−cpm determined for sample with positive control inhibitor)divided by(cpm determined in the presence of vehicle−cpm determined for sample with positive control inhibitor))*100.
Dose dilution series are prepared for the compounds enabling the testing of dose-response effects in the JAK1 assay and the calculation of the IC50 for each compound.
1.1.2 JAK1 Ulight-JAK1 Peptide Assay
(§2) After 60 min at room temperature, reactions were stopped by adding 20 μL/well of detection mixture (1× detection buffer (Perkin Elmer, catalog number CR97-100C), 0.5 nM Europium-anti-phosphotyrosine (PT66) (Perkin Elmer, catalog number AD0068), 10 mM EDTA). […] Kinase activity was calculated by subtracting relative fluorescence units (RFU) obtained in the presence of a positive control inhibitor (10 μM staurosporine) from RFU obtained in the presence of vehicle. The ability of a test compound to inhibit this activity was determined as:
(§3) Percentage inhibition=((RFU determined for sample with test compound present−RFU determined for sample with positive control inhibitor)divided by(RFU determined in the presence of vehicle−RFU determined for sample with positive control inhibitor))*100.
Dose dilution series were prepared for the compounds enabling the testing of dose-response effects in the JAK1 assay and the calculation of the IC50 for the compound. Each compound is routinely tested at concentration of 20 μM followed by a 1/5 serial dilution, 10 points in a final concentration of 1% DMSO. […] The data are expressed as the average IC50 from the assays±standard error of the mean.

Another test concerns the target T2, human JAK2 (Homo sapiens, UniProt O60674).
T2 construct: catalytic domain (amino acids 808-1132; catalog number PV4210); GST; purchased Invitrogen PV4210
Briefly: JAK2 inhibition assay (polyGT substrate / Ulight-JAK1 peptide). Format: biochemical. Conditions: recombinant human JAK2 catalytic domain; polyGT or Ulight-JAK1 peptide assay. The procedure: 1.2 JAK2 Inhibition Assay
1.2.1 JAK2 Assay polyGT Substrate
0.025 mU of JAK2 is incubated with 2.5 μg polyGT substrate (Sigma catalog number P0275) in kinase reaction buffer (5 mM MOPS pH 7.5, 9 mM MgAc, 0.3 mM EDTA, 0.06% Brij and 0.6 mM DTT, 1 μM non-radioactive ATP, 0.25 μCi ^33P-gamma-ATP (GE Healthcare, catalog number AH9968) final concentrations) with or without 5 μL containing test compound or vehicle (DMSO, 1% final concentration), in a total volume of 25 μL, in a polypropylene 96-well plate (Greiner, V-bottom). After 90 min at 30° C., reactions are stopped by adding of 25 μL/well of 150 mM phosphoric acid. […] Plates are washed 6 times with 300 μL per well of a 75 mM phosphoric acid solution and the bottom of the plates is sealed. 40 μL/well of Microscint-20 is added, the top of the plates is sealed and readout is performed using the Topcount (Perkin Elmer). Kinase activity is calculated by subtracting counts per min (cpm) obtained in the presence of a positive control inhibitor (10 μM staurosporine) from cpm obtained in the presence of vehicle. The ability of a test compound to inhibit this activity is determined as:
as §1
Dose dilution series are prepared for the compounds enabling the testing of dose-response effects in the JAK2 assay and the calculation of the IC50 for each compound.
1.2.2 JAK2 Ulight-JAK1 Peptide Assay
as §2, §3
Dose dilution series are prepared for compound enabling the testing of dose-response effects in the JAK2 assay and the calculation of the IC50 for the compound. Each compound is routinely tested at concentration of 20 μM followed by a 1/5 serial dilution, 10 points in a final concentration of 1% DMSO. […] The data are expressed as the average IC50 from the assays±standard error of the mean.

Consider 27 compounds from patent US20130217664A1, “NOVEL COMPOUNDS USEFUL FOR THE TREATMENT OF DEGENERATIVE AND INFLAMMATORY DISEASES” (priority 2012, published 2013).

A value given as a limit tells only on which side of the number the result lay.

T2 sequence (O60674 808-1132): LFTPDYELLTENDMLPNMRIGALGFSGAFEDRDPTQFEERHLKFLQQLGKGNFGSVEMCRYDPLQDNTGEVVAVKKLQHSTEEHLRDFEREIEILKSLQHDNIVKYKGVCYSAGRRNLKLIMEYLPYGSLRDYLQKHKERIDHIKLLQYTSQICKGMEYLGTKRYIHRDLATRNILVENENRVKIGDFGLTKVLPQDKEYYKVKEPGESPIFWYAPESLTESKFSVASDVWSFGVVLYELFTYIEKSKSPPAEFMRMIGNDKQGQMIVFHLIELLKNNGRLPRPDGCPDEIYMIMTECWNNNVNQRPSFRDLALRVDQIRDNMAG
T1 sequence (P23458 866-1154): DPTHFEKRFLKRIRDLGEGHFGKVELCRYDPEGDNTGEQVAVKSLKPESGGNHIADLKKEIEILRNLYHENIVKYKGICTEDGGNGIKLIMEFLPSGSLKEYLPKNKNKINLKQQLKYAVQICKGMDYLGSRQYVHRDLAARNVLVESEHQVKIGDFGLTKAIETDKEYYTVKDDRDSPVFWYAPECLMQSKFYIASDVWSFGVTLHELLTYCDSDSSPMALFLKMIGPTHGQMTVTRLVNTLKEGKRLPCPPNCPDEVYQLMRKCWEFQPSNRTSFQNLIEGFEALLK

As to `CCN(c1ccc2ocnc2c1)c1cc2c(cn1)ncn2C` [Compound 3, N-ethyl-N-(1-methyl-1H-imidazo[4,5-c]pyridin-6-yl)benzo[d]oxazol-5-amine], the IC50 at human JAK1 and at human JAK2 was above 1 µM each time.
For the compound `CCN(c1ccc2oc(C)nc2c1)c1cc2c(cn1)ncn2C` [Compound 6, N-ethyl-2-methyl-N-(1-methyl-1H-imidazo[4,5-c]pyridin-6-yl)benzo[d]oxazol-5-amine], the 50% inhibitory concentration (IC50) (commonly the midpoint of a concentration-inhibition curve) on human JAK1 is 0.501 to 1 µM; on human JAK2, above 1 µM.
On to `CCN(c1ccc2c(ccn2C)c1)c1cc2c(cn1)ncn2C` [Compound 8, N-ethyl-1-methyl-N-(1-methyl-1H-indol-5-yl)-1H-imidazo[4,5-c]pyridin-6-amine], for which the IC50 at human JAK1 was above 1 µM; at human JAK2, 0.101 to 0.5 µM.
Taken in the same sequence, the figures for `CCN(c1cccc(C(=O)c2ccccc2)c1)c1cc2c(cn1)ncn2C` [Compound 9, (3-(ethyl(1-methyl-1H-imidazo[4,5-c]pyridin-6-yl)amino)phenyl)(phenyl) methanone] were above 1 µM and above 1 µM.
In the same order, the values of `CCN(c1ccc2sc(C)nc2c1)c1cc2c(cn1)ncn2C` [Compound 10, N-ethyl-2-methyl-N-(1-methyl-1H-imidazo[4,5-c]pyridin-6-yl)benzo[d]thiazol-5-amine] are above 1 µM and above 1 µM.
On to `CCN(c1cccc(Oc2ccccc2)c1)c1cc2c(cn1)ncn2C` [Compound 11, N-ethyl-1-methyl-N-(3-phenoxyphenyl)-1H-imidazo[4,5-c]pyridin-6-amine], for which the IC50 at human JAK1 was 0.101 to 0.5 µM; at human JAK2, above 1 µM.
On to `CCN(c1cccc(C(O)c2ccccc2)c1)c1cc2c(cn1)ncn2C` (stereo not drawn) [Compound 12, (3-(ethyl(1-methyl-1H-imidazo[4,5-c]pyridin-6-yl)amino)phenyl)(phenyl) MeOH], for which the IC50 was 0.501 to 1 µM at human JAK1 and above 1 µM on human JAK2.
Regarding `CCN(c1ccc(CO)cc1)c1cc2c(cn1)ncn2C` [Compound 13, (4-(ethyl(1-methyl-1H-imidazo[4,5-c]pyridin-6-yl)amino)phenyl)MeOH], the IC50 on human JAK1 is 0.501 to 1 µM; on human JAK2 it was above 1 µM.
Take `CN(c1ccc(OCc2ccccc2)cc1)c1cc2c(cn1)ncn2C` [Compound 14, N-(4-(benzyloxy)phenyl)-N,1-dimethyl-1H-imidazo[4,5-c]pyridin-6-amine]: the IC50 at human JAK1 and at human JAK2 was above 1 µM each time.
For the compound `Cc1ccccc1N(C)c1cc2c(cn1)ncn2C` [Compound 15, N,1-dimethyl-N-o-tolyl 1H-imidazo[4,5-c]pyridin-6-amine], the IC50 on human JAK1 was 0.101 to 0.5 µM; at human JAK2 it was above 1 µM.
As to `CN(c1ccc(OCC2CCCO2)cc1)c1cc2c(cn1)ncn2C` (stereo not drawn) [Compound 18, N,1-dimethyl-N-(4-((tetrahydrofuran-2-yl)methoxy)phenyl)-1H-imidazo[4,5-c]pyridin-6-amine], the values for the IC50 on human JAK1 and at human JAK2 were 0.501 to 1 µM and above 1 µM, respectively.
For `CN(c1ccc(OCCO)cc1)c1cc2c(cn1)ncn2C` [Compound 19, 2-(4-(methyl(1-methyl-1H-imidazo[4,5-c]pyridin-6-yl)amino)phenoxy)ethanol], the values for the IC50 at human JAK1 and on human JAK2 were 0.101 to 0.5 µM and above 1 µM, respectively.
Taken in the same sequence, the figures for `Cc1noc(C)c1COc1ccc(N(C)c2cc3c(cn2)ncn3C)cc1` [Compound 20, N-(4-((3,5-dimethylisoxazol-4-yl)methoxy)phenyl)-N,1-dimethyl-1H-imidazo[4,5-c]pyridin-6-amine] were above 1 µM and above 1 µM.
On to `CC(C)CCOc1ccc(N(C)c2cc3c(cn2)ncn3C)cc1` [Compound 21, N-(4-(isopentyloxy)phenyl)-N,1-dimethyl-1H-imidazo[4,5-c]pyridin-6-amine], for which the IC50 on human JAK1 was 0.501 to 1 µM; on human JAK2, above 1 µM.
Regarding `CCCOc1ccc(N(C)c2cc3c(cn2)ncn3C)cc1` [Compound 22, N,1-dimethyl-N-(4-propoxyphenyl)-1H-imidazo[4,5-c]pyridin-6-amine], the figures for the IC50 on human JAK1 and at human JAK2 were 0.101 to 0.5 µM and 0.501 to 1 µM, respectively.
With `CCOCCOc1ccc(N(C)c2cc3c(cn2)ncn3C)cc1` [Compound 23, N-(4-(2-ethoxyethoxy)phenyl)-N,1-dimethyl-1H-imidazo[4,5-c]pyridin-6-amine], the IC50 at human JAK1 is 0.501 to 1 µM; at human JAK2, above 1 µM.
Taken in the same sequence, the figures for `CN(c1ccc(OCC2CC2)cc1)c1cc2c(cn1)ncn2C` [Compound 24, N-(4-(cyclopropylmethoxy)phen-yl)-N,1-dimethyl-1H-imidazo[4,5-c]pyridin-6-amine] were 0.101 to 0.5 µM and above 1 µM.
In the case of `CN(c1cc2c(cn1)ncn2C)c1ccccc1C(F)(F)F` [Compound 36, N,1-dimethyl-N-(2-(trifluoromethyl)phenyl)-1H-imidazo[4,5-c]pyridin-6-amine], the 50% inhibitory concentration (IC50) at human JAK1 and at human JAK2 was above 1 µM throughout.
Consider `CCc1ccccc1N(c1cc2c(cn1)ncn2C)C1CC1` [Compound 37, N-Cyclopropyl-N-(2-ethylphenyl)-1-methyl-1H-imidazo[4,5-c]pyridin-6-amine], for which the IC50 on human JAK1 is 0.101 to 0.5 µM; on human JAK2, above 1 µM.
As for `Cc1cc(C(=O)O)ccc1N(C)c1cc2c(cn1)ncn2C` [Compound 40, 3-methyl-4-(methyl(1-methyl-1H-imidazo[4,5-c]pyridin-6-yl)amino)benzoic acid], the IC50 at human JAK1 and at human JAK2 was above 1 µM each time.
On to `CN(c1cc2c(cn1)ncn2C)c1ccccc1C#N` [Compound 41, 2-(Methyl(1-methyl-1H-imidazo[4,5-c]pyridin-6-yl)amino)benzonitrile], for which the IC50 at human JAK1 and at human JAK2 was above 1 µM each time.
For `COc1ccccc1N(C)c1cc2c(cn1)ncn2C` [Compound 42, N-(2-methoxyphenyl)-N,1-dimethyl-1H-imidazo[4,5-c]pyridin-6-amine], the IC50 on human JAK1 was 0.101 to 0.5 µM; on human JAK2, above 1 µM.
For the compound `COc1ccc(COc2cccc(N(C)c3cc4c(cn3)ncn4C)c2C)cc1` [Compound 44, N-(3-(4-methoxybenzyloxy)-2-methylphenyl)-N,1-dimethyl-1H-imidazo[4,5-c]pyridin-6-amine], the results for the 50% inhibitory concentration (IC50) at human JAK1 and at human JAK2 were 0.501 to 1 µM and above 1 µM, respectively.
In the same order, the values of `COc1ccc(N(C)c2cc3c(cn2)ncn3C)c(C)c1` [Compound 45, N-(4-Methoxy-2-methylphenyl)-N,1-dimethyl-1H-imidazo[4,5-c]pyridin-6-amine] are 0.101 to 0.5 µM and above 1 µM.
Regarding `Cc1c(O)cccc1N(C)c1cc2c(cn1)ncn2C` [Compound 46, 2-methyl-3-(methyl(1-methyl-1H-imidazo[4,5-c]pyridin-6-yl)amino)phenol], the IC50 on human JAK1 and at human JAK2 was above 1 µM each time.
Take `CN(c1cc2c(cn1)ncn2C)c1ccccc1OC(F)(F)F` [Compound 49, N,1-dimethyl-N-(2-(trifluoromethoxy)phenyl)-1H-imidazo[4,5-c]pyridin-6-amine]: the IC50 is 0.501 to 1 µM at human JAK1 and above 1 µM on human JAK2.
In the same order, the values of `COCCNC(=O)c1ccc(N(C)c2cc3c(cn2)ncn3C)c(C)c1` [Compound 50, N-(2-methoxyethyl)-3-methyl-4-(methyl(1-methyl-1H-imidazo[4,5-c]pyridin-6-yl)amino)benzamide] are above 1 µM and above 1 µM.
